Measured values published in patent EP2322514A1, “Homoglutamic acid and glutamic acid derivatives” (Bayer Schering Pharma Aktiengesellschaft, priority 2009, dated 2011).

Tested on: NSCLC tumor cells (NCl-H460)
Assay: cell competition experiment: uptake of 3H-glutamic acid into tumor cells
Assay type: cell-based
Settings: NCI-H460 cells, 10 min incubation with 1 µci 3H-glutamic acid in PBS-buffer, test compound 1 mM (excess)
Experimental: Figure 1: Examination of biological activity of (2S)-2-Amino-7-fluoro-4-phosphonoheptanoic acid in a cell competition experiment. (NCI-H460 cells, 10 min incubation with 1 µci 3H-glutamic acid in PBS-buffer, concentration of (2S)-2-Amino-7-fluoro-4-phosphonoheptanoic acid 1 mM).
The ability of compounds from the present invention to compete with uptake of glutamic acid into tumor cells was examined. Therefore, NSCLC tumor cells (NCl-H460) were co-incubated with 3H-labeled glutamic acid and (2S)-2-Amino-7-fluoro-4-phosphonoheptanoic acid. This compound was used in excess (1 mM) to the tracer 3H-glutamic acid.

N[C@@H](CC(CCCF)P(=O)(O)O)C(=O)O (stereo partly drawn) [(2S)-2-Amino-7-fluoro-4-phosphonoheptanoic acid]
uptake of 3H-glutamic acid: could be decreased
